# Measured values from patent publication US20180327807A1, “ASSAY FOR DETERMINING ANTIBIOTICS IN WASTE” (DSM Sinochem Pharmaceuticals Netherlands B.V., priority 2015, published 2018).
# Tested on: microorganism in the agar layer
# Experiment: Delvotest SP NT microbial growth inhibition assay, colour of the agar indicator, with or without added milk
# Format: cell-based
# Conditions: 2 ppb test solution, with added milk or added water, 60 to 210 min
# Protocol: From all samples solutions 100 μl is brought in the Delvotest SP NT Ampoule with an Eppendorf pipet of 100 μl. With the point of the pipet the tube cover top of the ampoule will be penetrated and the 100 μl is added to the ampoule. Put the ampoules for 2.5 h in a water bath of 65° C. Seal the ampoule with tape. After 2.5 h the ampoules are removed from the water bath. Check if the blanks are yellow, if not prolong the time in the water bath with 30 min. Yellow is negative and purple is positive. Positive means there is antimicrobial activity present in the sample which is higher than 2 ppb (calculated as penicillin G K). Two samples, a blank (water) and 2 ppb penicillin G K test solution were analysed using commercially available (DSM Food Specialties B.V., Delft, The Netherlands) Delvotest SP NT analogous to the supplier's manual. Two ampoules were filled with blank sample. To one milk (regular low-fat milk from a Dutch supermarket was used in the present example) was added according to the instruction as outlined in Example 1 and to the other the same amount of water was added. […] The ampoules filled with sample were incubated at 64° C.+/−2° C.) and the colour of the agar in the ampoules was visually recorded at several points in time. […]
smiles,measurement,value
"CC1(C)S[C@@H]2[C@H](NC(=O)Cc3ccccc3)C(=O)N2[C@H]1C(=O)[O-].[K+] [Penicillin G K test solution, penicillin G K]",colour change of the indicator (inhibiting effect on growth of the microorganism),do not show any colour change
